pKi: −log10 of the molar value.

This assay addresses Platelet-activating factor receptor (Oryctolagus cuniculus). Nature of the assay: Tested in vitro for antagonistic activity to displace [3H]PAF from rabbit platelet membrane PAF receptors.
`O=C(c1ccn2c1CSC2c1cccnc1)c1cn(C(=O)N2CCOCC2)c2ccccc12` (stereo not given) [Morpholin-4-yl-[3-(3-pyridin-3-yl-1H-pyrrolo[1,2-c]thiazole-7-carbonyl)-indol-1-yl]-methanone] had a pKi of 6.65.
`CN(C)C(=O)n1cc(C(=O)c2ccn3c2CSC3c2cccnc2)c2ccc(Cl)cc21` (stereo not given) [6-Chloro-3-(3-pyridin-3-yl-1H-pyrrolo[1,2-c]thiazole-7-carbonyl)-indole-1-carboxylic acid dimethylamide] gave a pKi of 7.05.
The compound `CN(C)C(=O)Cn1cc(C(=O)c2ccn3c2CSC3c2cccnc2)c2ccc(-c3ccc(F)cc3)cc21` (stereo not given) [2-[6-(4-Fluoro-phenyl)-3-(3-pyridin-3-yl-1H-pyrrolo[1,2-c]thiazole-7-carbonyl)-indol-1-yl]-N,N-dimethyl-acetamide] had a pKi of 9.15.
Compound `CN(C)C(=O)n1cc(C(=O)c2ccn3c2CSC3c2cccnc2)c2cc(OCc3ccccc3)ccc21` (stereo not given) [5-Benzyloxy-3-(3-pyridin-3-yl-1H-pyrrolo[1,2-c]thiazole-7-carbonyl)-indole-1-carboxylic acid dimethylamide] gave a pKi of 6.92. This pKi lies 2.23 log units lower than the previous one.
In turn, `CN(C)C(=O)n1cc(C(=O)c2ccn3c2CSC3c2cccnc2)c2ccc(-c3ccccc3)cc21` (stereo not given) [6-Phenyl-3-(3-pyridin-3-yl-1H-pyrrolo[1,2-c]thiazole-7-carbonyl)-indole-1-carboxylic acid dimethylamide] gave a pKi of 7.64.
The value for `CN(C)C(=O)n1cc(C(=O)c2ccn3c2CSC3c2cccnc2)c2ccc(Sc3ccc(F)cc3)cc21` (stereo not given) [6-(4-Fluoro-phenylsulfanyl)-3-(3-pyridin-3-yl-1H-pyrrolo[1,2-c]thiazole-7-carbonyl)-indole-1-carboxylic acid dimethylamide] was 7.77; that for `Cn1cc(C(=O)c2ccn3c2CSC3c2cccnc2)c2ccc(-c3ccc(F)cc3)cc21` (stereo not given) [[6-(4-Fluoro-phenyl)-1-methyl-1H-indol-3-yl]-(3-pyridin-3-yl-1H-pyrrolo[1,2-c]thiazol-7-yl)-methanone] was 8.15.
Regarding `CN(C)C(=O)n1cc(C(=O)c2ccn3c2CSC3c2cccnc2)c2ccc(Oc3ccc(F)cc3)cc21` (stereo not given) [6-(4-Fluoro-phenoxy)-3-(3-pyridin-3-yl-1H-pyrrolo[1,2-c]thiazole-7-carbonyl)-indole-1-carboxylic acid dimethylamide], the pKi is 8.77.
`O=C(c1ccn2c1CSC2c1cccnc1)c1c[nH]c2c(OCc3ccccc3)cccc12` (stereo not given) [(7-Benzyloxy-1H-indol-3-yl)-(3-pyridin-3-yl-1H-pyrrolo[1,2-c]thiazol-7-yl)-methanone] had a pKi of 7.05. Against the preceding compound, the pKi is 1.72 log units lower.
As for `O=C(c1ccn2c1CSC2c1cccnc1)c1c[nH]c2cc(-c3ccc(F)cc3)ccc12` (stereo not given) [[6-(4-Fluoro-phenyl)-1H-indol-3-yl]-(3-pyridin-3-yl-1H-pyrrolo[1,2-c]thiazol-7-yl)-methanone], the pKi is 7.12.
In turn, `CCNC(=O)n1cc(C(=O)c2ccn3c2CSC3c2cccnc2)c2ccc(-c3ccc(F)cc3)cc21` (stereo not given) [6-(4-Fluoro-phenyl)-3-(3-pyridin-3-yl-1H-pyrrolo[1,2-c]thiazole-7-carbonyl)-indole-1-carboxylic acid ethylamide] showed a negative-log Ki (pKi) of 7.72.
Consider `O=C(c1ccn2c1CSC2c1cccnc1)c1c[nH]c2cccc(O)c12` (stereo not given) [(4-Hydroxy-1H-indol-3-yl)-(3-pyridin-3-yl-1H-pyrrolo[1,2-c]thiazol-7-yl)-methanone], for which the pKi is 6.49.
For the compound `NNC(=O)n1cc(C(=O)c2ccn3c2CSC3c2cccnc2)c2ccc(-c3ccc(F)cc3)cc21` (stereo not given) [6-(4-Fluoro-phenyl)-3-(3-pyridin-3-yl-1H-pyrrolo[1,2-c]thiazole-7-carbonyl)-indole-1-carboxylic acid hydrazide], the pKi was 7.60.
With `CC(C)(C)OC(=O)n1cc(C(=O)c2ccn3c2CSC3c2cccnc2)c2ccccc21` (stereo not given) [3-(3-Pyridin-3-yl-1H-pyrrolo[1,2-c]thiazole-7-carbonyl)-indole-1-carboxylic acid tert-butyl ester], the pKi is 6.96.
For the compound `CN(C)C(=O)n1cc(C(=O)c2ccn3c2CSC3c2cccnc2)c2ccc(Cc3ccccc3)cc21` (stereo not given) [6-Benzyl-3-(3-pyridin-3-yl-1H-pyrrolo[1,2-c]thiazole-7-carbonyl)-indole-1-carboxylic acid dimethylamide], the pKi is 7.89. Compared with the last compound, the pKi is 0.93 log units higher.
As to `CN(C)C(=O)n1cc(C(=O)c2ccn3c2CSC3c2cccnc2)c2ccccc21` (stereo not given) [3-(3-Pyridin-3-yl-1H-pyrrolo[1,2-c]thiazole-7-carbonyl)-indole-1-carboxylic acid dimethylamide], the pKi is 7.02.
In turn, `CN(C)C(=O)n1cc(C(=O)c2ccn3c2CSC3c2cccnc2)c2ccc(OCc3ccccc3)cc21` (stereo not given) [6-Benzyloxy-3-(3-pyridin-3-yl-1H-pyrrolo[1,2-c]thiazole-7-carbonyl)-indole-1-carboxylic acid dimethylamide] had a pKi of 7.77. Against the preceding compound, the pKi is 0.75 log units higher.
In turn, `O=C(c1ccn2c1CSC2c1cccnc1)c1c[nH]c2cc(OCc3ccccc3)ccc12` (stereo not given) [(6-Benzyloxy-1H-indol-3-yl)-(3-pyridin-3-yl-1H-pyrrolo[1,2-c]thiazol-7-yl)-methanone] showed a pKi of 7.19.
Take `NC(=O)n1cc(C(=O)c2ccn3c2CSC3c2cccnc2)c2ccc(-c3ccc(F)cc3)cc21` (stereo not given) [6-(4-Fluoro-phenyl)-3-(3-pyridin-3-yl-1H-pyrrolo[1,2-c]thiazole-7-carbonyl)-indole-1-carboxylic acid amide]: the pKi is 8.22.
`O=C(c1ccn2c1CSC2c1cccnc1)c1c[nH]c2ccc(OCc3ccccc3)cc12` (stereo not given) [(5-Benzyloxy-1H-indol-3-yl)-(3-pyridin-3-yl-1H-pyrrolo[1,2-c]thiazol-7-yl)-methanone] gave a pKi of 6.74.

These data come from BindingDB's records for doi:10.1016/0960-894X(95)00509-R (1995).
